Source: patent publication US20200157151A1, “PEPTIDE COMPOUNDS, CONJUGATE COMPOUNDS AND USES THEREOF FOR TREATING INFLAMMATORY DISEASES” (TRANSFERT PLUS, S.E.C., priority 2017, published 2020)
Square brackets hold non-standard residues; d marks the D form. Peptide text beside a SMILES is read from it. Nle = CCCC[C@H](N)C(=O)O

Experiments:
[1] = test system: human HT-29 colorectal cancer cells; assay: Time-course uptake by flow cytometry (cell-associated fluorescence); format: cell-based; details: 5 μM, 37° C., HT-29 cells, FIG. 4B
Procedure: FIG. 4 is a series of charts illustrating higher and sustained uptake of KBC-201 (FIG. 4A). At the same concentration (5 μM), KBC-201 generates about half the fluorescence compared to free curcumin (Ex.: 488 nm, Em.: 530 nm) (FIG. 4B). Time-course uptake of KBC-201 (full line) and free curcumin (dotted line) in human HT-29 colorectal cancer cells. HT-29 cells were incubated at 37° C. with 5 μM of KBC-201 or curcumin at various times, trypsinized, washed, and cell-associated fluorescence uptake was quantified using a BD Accuri™ C6 flow cytometer.
(§1) The uptake of Curcumin conjugate or free Curcumin was measured as a function of time in human HT-29 colon cancer cells (FIG. 4). […] Indeed, the Curcumin conjugate (KBC-201) is less fluorescent by about 2-3 folds when compared to free Curcumin. […] The uptake of both KBC-201 and free Curcumin was next measured in the presence of Sortilin ligands (FIG. 5B). […] Taken together, data of the pharmacological inhibition using Sortilin ligands and the silencing of Sortlin expression confirm that the Curcumin conjugate is internalized via a Sortilin-dependent mechanism.

Sortilin receptor = biological target: T1, Sortilin receptor (Homo sapiens, UniProt Q99523); assay: Sortilin-mediated uptake in HT-29 cells (siRNA silencing and competition with Sortilin ligands); format: cell-based; details: 5 μM; for Uptake when Sortilin expression is reduced by siRNA: 2 h, 37° C., siSortilin vs siScrambled HT-29 cells, FIG. 5A; for Uptake in the presence of Sortilin ligands: excess free peptide (50 μM), neurotensin (10 μM) or progranulin (1 nM), HT-29 cells, FIG. 5B
T1 construct: Sortilin-deficient (siSortilin) HT-29 colorectal cancer cells; endogenous in cells; host or cells: HT-29 human colorectal cancer cells
T1 sequence (Q99523 78-831): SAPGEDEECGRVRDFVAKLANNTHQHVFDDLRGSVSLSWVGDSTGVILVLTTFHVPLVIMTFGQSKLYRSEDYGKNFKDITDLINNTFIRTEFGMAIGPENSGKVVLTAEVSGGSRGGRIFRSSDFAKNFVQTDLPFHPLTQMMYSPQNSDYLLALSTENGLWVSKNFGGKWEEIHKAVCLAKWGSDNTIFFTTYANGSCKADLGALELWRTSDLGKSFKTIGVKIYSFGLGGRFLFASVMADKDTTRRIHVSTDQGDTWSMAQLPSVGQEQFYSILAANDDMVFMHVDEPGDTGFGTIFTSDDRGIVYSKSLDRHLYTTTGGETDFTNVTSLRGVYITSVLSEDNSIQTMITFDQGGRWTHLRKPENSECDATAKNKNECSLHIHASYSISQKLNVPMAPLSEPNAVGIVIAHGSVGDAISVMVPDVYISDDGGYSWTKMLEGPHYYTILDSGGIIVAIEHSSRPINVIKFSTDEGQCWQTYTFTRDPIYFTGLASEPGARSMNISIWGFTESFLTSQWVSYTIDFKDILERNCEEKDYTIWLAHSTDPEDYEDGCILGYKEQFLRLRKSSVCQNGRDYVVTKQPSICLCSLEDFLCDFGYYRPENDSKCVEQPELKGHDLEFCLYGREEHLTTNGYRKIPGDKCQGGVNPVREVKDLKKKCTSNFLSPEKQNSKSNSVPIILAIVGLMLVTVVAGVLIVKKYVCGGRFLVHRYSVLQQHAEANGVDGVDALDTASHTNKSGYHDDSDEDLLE
Procedure: FIG. 5 is a series of charts showing Sortilin-mediated uptake of KBC-201 in human colorectal cancer cells, FIG. 5A) Uptake of 5 μM of KBC-201 or free curcumin were performed at 37° C. in control (siScrambled) or Sortilin-deficient (siSortilin) HT-29 colorectal cancer cells. After a 2 h incubation, cells were trypsinized to remove non-internalized products, washed 3-times with ice-cold PBS and cell-associated fluorescence was quantified using a BD Accuri™ C6 flow cytometer. […] Cell-associated fluorescence uptake was quantified using a BD Accuri™ C6 flow cytometer.
as §1

[2] = Stability at room temperature followed by absorbance over time; details: FIG. 11
Source text: FIG. 11 is a graph showing absorbance of Curcumin conjugates and free Curcumin.

[3] = biological target: T2, Human recombinant Sortilin chimera protein (Homo sapiens, UniProt Q99523); assay: Surface plasmon resonance (Biacore) interaction with immobilized Sortilin; format: binding; details: SPR; for Affinity for Sortilin, in words: comparison between peptides and Sortilin ligands
T2 construct: unnamed fusion partner or tag ('chimera'); purchased R&D Systems 3154-ST
T2 sequence (Q99523 78-755 limits assumed): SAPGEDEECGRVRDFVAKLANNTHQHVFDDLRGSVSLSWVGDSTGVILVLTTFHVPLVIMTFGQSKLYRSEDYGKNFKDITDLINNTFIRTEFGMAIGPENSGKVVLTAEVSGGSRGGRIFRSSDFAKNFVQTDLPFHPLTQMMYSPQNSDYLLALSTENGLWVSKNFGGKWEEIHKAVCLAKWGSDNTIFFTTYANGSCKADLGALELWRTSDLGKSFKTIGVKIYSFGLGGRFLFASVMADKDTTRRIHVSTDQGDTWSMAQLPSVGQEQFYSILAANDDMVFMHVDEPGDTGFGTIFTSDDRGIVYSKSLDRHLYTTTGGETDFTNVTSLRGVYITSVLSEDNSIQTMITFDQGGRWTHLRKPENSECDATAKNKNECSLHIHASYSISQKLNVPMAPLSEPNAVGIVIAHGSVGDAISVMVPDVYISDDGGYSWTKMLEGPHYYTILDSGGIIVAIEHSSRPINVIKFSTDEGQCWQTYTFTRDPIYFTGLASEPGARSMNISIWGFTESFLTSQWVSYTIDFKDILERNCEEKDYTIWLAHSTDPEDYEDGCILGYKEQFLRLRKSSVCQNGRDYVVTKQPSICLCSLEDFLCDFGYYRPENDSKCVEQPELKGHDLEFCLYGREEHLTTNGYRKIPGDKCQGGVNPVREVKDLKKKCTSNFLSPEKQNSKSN
Source text: FIG. 12 is schematic representation of real time interaction analysis using Surface Plasmon Resonance (SPR) and a Biacore instrument.
Further tests were made so as to investigate interaction of the peptide compounds of the present disclosure with Sortilin. Such tests were made using real-time surface plasmon resonance (Biacore) (see FIG. 12).

[4] = test system: TNF-α-induced IκB phosphorylation in human HT-29 colon cancer cells; assay: Inhibition of TNF-α-induced IκB phosphorylation in HT-29 cells; format: cell-based; details: 24 h pre-treatment, 100 ng/mL TNF-α 5 min, HT-29, FIG. 17; at a lower concentration than Curcumin
Source text: FIG. 8A) Immunodetection of IκB phosphorylation by TNF-α is shown.
One of the inflammatory pathways induced by TNF-α leads to the phosphorylation of IkB (FIG. 1), a key protein in inflammation. As expected, the addition of TNF-α to human HT-29 colon cancer cells triggered the phosphorylation of IkB (pIkB) (FIG. 8).
One of the inflammatory pathways induced by TNF-α leads to the phosphorylation IkB (see FIG. 1), a key protein in inflammation. It was observed that the addition of TNF-α to human HT-29 colon cancer cells triggered the phosphorylation of IkB (pIkB) (FIGS. 17A and 17B).

[5] = test system: TNF-α-induced NFκB phosphorylation in human MDA-MB231 breast cancer cells; assay: Inhibition of TNF-α-induced NFκB phosphorylation in MDA-MB231 cells; format: cell-based; details: 24 h pre-treatment, 100 ng/mL TNF-α 5 min, MDA-MB231, FIG. 18
Source text: FIG. 9A) Immunodetection of phosphorylated NFκB by TNF-α is shown.
FIGS. 9 and 10 are other examples of the Curcumin conjugate (KBC-201)'s effect on the TNF-α-induced signaling pathways in two other cancer cell models.
Results presented in FIGS. 18A and 18B show now that the peptide alone (KBP-201) can reduce the TNF-α-induced NFκB phosphorylation by about 30%.
In FIG. 18A, immunodetection of NFκB phosphorylation by TNF-α is shown.

[6] = test system: TNF-α-induced COX-2 expression in human HT-29 colon cancer cells; details: 2 h pre-treatment, 10 ng/mL TNF-α 24 h, HT-29, FIG. 7
Procedure: (§2) Cells were pre-treated for 2 h with indicated compounds in serum-free medium before the addition of 10 ng/mL TNF-α for 24 h. Cells were lysed and the levels protein expression of COX-2 were monitored by immunoblotting. […] For each sample, the COX-2 level was corrected for GAPDH (a loading control) and normalized to those seen in TNF-α control (value=100%).
as §2, with “the” for “the levels”, “expression levels” for “expression”

COc1cc(/C=C/C(=O)CC(=O)/C=C/c2ccc(O)c(OC)c2)ccc1O [Curcumin, reference compound]
Uptake over time (cell-associated fluorescence) ([1]; listed as free Curcumin): transient and low intracellular accumulation | Uptake over time (cell-associated fluorescence) ([1]; listed as free curcumin): transient uptake | Uptake when Sortilin expression is reduced by siRNA (Sortilin receptor; listed as free Curcumin): unaffected | Uptake when Sortilin expression is reduced by siRNA (Sortilin receptor; listed as free curcumin): not that of free curcumin | Uptake in the presence of Sortilin ligands (Sortilin receptor; listed as free Curcumin): unaffected by none of them | Uptake in the presence of Sortilin ligands (Sortilin receptor; listed as free curcumin): not that of free curcumin | Stability (absorbance over time) [2]: decreased more rapidly over time

CCCC[C@H](NC(=O)[C@H](CC(N)=O)NC(=O)[C@H](CCCNC(=N)N)NC(=O)[C@@H](NC(=O)CNC(=O)[C@H](C)NC(=O)[C@H](CCCCN)NC(=O)[C@H](C)NC(=O)[C@H](CCCNC(=N)N)NC(=O)[C@@H](NC(=O)CNC(C)=O)C(C)C)C(C)C)C(=O)N[C@@H](Cc1ccccc1)C(=O)N[C@@H](CCCCN)C(=O)N[C@@H](CO)C(=O)N[C@@H](CCC(=O)O)C(=O)N[C@@H](CO)C(=O)N[C@@H](Cc1ccc(O)cc1)C(=O)O [KBP-106] (Ac-GVRAKAGVRN[Nle]FKSESY-OH; C-terminus assumed)
Affinity for Sortilin, in words [3]: better affinity for Sortilin than Neurotensin

CC(=O)N[C@@H](Cc1ccc(O)cc1)C(=O)N[C@@H](CCCCN)C(=O)N[C@@H](CO)C(=O)N[C@@H](CC(C)C)C(=O)N[C@@H](CCCNC(=N)N)C(=O)N[C@@H](CCCNC(=N)N)C(=O)N[C@@H](CCCCN)C(=O)N[C@@H](C)C(=O)N1CCC[C@H]1C(=O)N[C@@H](CCCNC(=N)N)C(=O)N[C@@H](Cc1c[nH]c2ccccc12)C(=O)N[C@@H](CC(=O)O)C(=O)N[C@@H](C)C(=O)N1CCC[C@H]1C(=O)N[C@@H](CC(C)C)C(=O)N[C@@H](CCCNC(=N)N)C(=O)N[C@@H](CC(=O)O)C(=O)N1CCC[C@H]1C(=O)N[C@@H](C)C(=O)N[C@@H](CC(C)C)C(=O)N[C@@H](CCCNC(=N)N)C(=O)N[C@@H](CCC(N)=O)C(=O)N[C@@H](CC(C)C)C(=O)N[C@@H](CC(C)C)C(=O)O [KBP-201]
Affinity for Sortilin, in words [3]: better affinity for Sortilin than Neurotensin | Affinity for Sortilin, in words ([3]; listed as KB-P201): better affinity | Reduction of TNF-α-induced phosphorylation of IkB, maximal effect [4]: 40% | Reduction of TNF-α-induced NFκB phosphorylation [5]: about 30%

Acetyl-GVRAK(curcumin)AGVRN(Nle)FK(curcumin)SESY [KBC-106]
Inhibition of TNFα-induced COX-2 expression, comparison of two conjugates [6]: more potent than free Curcumin | Stability (absorbance over time) [2]: more stable

RAP: receptor-associated protein, a Sortilin ligand [reference compound]
Kd ([3]; Sortilin immobilized on CM5 chip, KD calculated with Bia Evaluation software from sensorgrams of FIGS. 13-16, read-out: Affinity (KD)): 4.2 nM
